For the test, the system named is MV-4-11 cells. The experiment in a line: Gene expression microarray analysis (Affymetrix PrimeView) and GSEA. To be noted: ProbeSet 11741311_a_at; LIST B. Format: cell-based, human. Set-up: RFU PODN (11730768_x_at) / Fold change /veh PODN (11730768_x_at) / RFU LINC00158 (11744669_a_at) / Fold change /veh LINC00158 (11744669_a_at) / RFU DUSP10 (11751237_a_at) / Fold change /veh DUSP10 (11751237_a_at) / RFU ID3 (11757404_x_at) / Fold change /veh ID3 (11757404_x_at) / RFU PLEKHG5 (11737974_s_at) / Fold change /veh PLEKHG5 (11737974_s_at) / RFU LRRC4B (11730491_at) / Fold change /veh LRRC4B (11730491_at) / RFU GIMAP4 (11747438_a_at) / Fold change /veh GIMAP4 (11747438_a_at) / RFU KRT8 (11758183_x_at) / Fold change /veh KRT8 (11758183_x_at) / RFU CNN1 (11734310_a_at) / Fold change /veh CNN1 (11734310_a_at) / RFU VPS37D (11726825_at) / Fold change /veh VPS37D (11726825_at) / RFU C10orf10 (11716522_x_at) / Fold change /veh C10orf10 (11716522_x_at) / RFU KIR2DL2 /// KIR2DL4 /// KIR2DL5A /// KIR2DL5B /// KIR2DS1 /// KIR2DS2 /// KIR2DS3 /// KIR2DS4 /// KIR3DL3 /// KIR3DL3 /// KIR3DS1 (11738374_at) / Fold change /veh KIR2DL2 /// KIR2DL4 /// KIR2DL5A /// KIR2DL5B /// KIR2DS1 /// KIR2DS2 /// KIR2DS3 /// KIR2DS4 /// KIR3DL3 /// KIR3DL3 /// KIR3DS1 (11738374_at) / RFU C1QL1 (11718748_at) / Fold change /veh C1QL1 (11718748_at) / RFU TMPRSS4 (11747572_a_at) / Fold change /veh TMPRSS4 (11747572_a_at) / RFU HAMP (11756126_x_at) / Fold change /veh HAMP (11756126_x_at) / RFU RNFT2 (11725882_a_at) / Fold change /veh RNFT2 (11725882_a_at) / RFU NR4A2 (11747474_a_at) / Fold change /veh NR4A2 (11747474_a_at) / RFU ABCC12 (11746883_a_at) / Fold change /veh ABCC12 (11746883_a_at) / RFU TMEM136 (11760407_x_at) / Fold change /veh TMEM136 (11760407_x_at) / RFU CLDN22 /// WWC2 (11732394_at) / Fold change /veh CLDN22 /// WWC2 (11732394_at) / RFU HLA-DPB1 (11760878_x_at) / Fold change /veh HLA-DPB1 (11760878_x_at) / RFU SPINT1 (11716480_a_at) / Fold change /veh SPINT1 (11716480_a_at) / RFU GAP43 (11754022_s_at) / Fold change /veh GAP43 (11754022_s_at) / RFU A4GNT (11735810_at) / Fold change /veh A4GNT (11735810_at) / RFU PRB3 (11715151_x_at) / Fold change /veh PRB3 (11715151_x_at) / RFU TUBB4B (11761932_at) / Fold change /veh TUBB4B (11761932_at) / RFU CAPN14 (11732068_a_at) / Fold change /veh CAPN14 (11732068_a_at) / RFU TMCC2 (11721928_a_at) / Fold change /veh TMCC2 (11721928_a_at) / RFU IRGQ (11745062_a_at) / Fold change /veh IRGQ (11745062_a_at) / RFU FAM174B (11720279_a_at) / Fold change /veh FAM174B (11720279_a_at) / RFU TMPRSS4 (11748680_a_at) / Fold change /veh TMPRSS4 (11748680_a_at) / RFU FAM212B (11763350_a_at) / Fold change /veh FAM212B (11763350_a_at) / RFU PLEKHG5 (11743358_a_at) / Fold change /veh PLEKHG5 (11743358_a_at) / RFU ZSCAN30 (11745921_a_at) / Fold change /veh ZSCAN30 (11745921_a_at) / RFU CMKLR1 (11741424_a_at) / Fold change /veh CMKLR1 (11741424_a_at) / RFU LOC101060620 /// MAPK8IP1 (11723275_at) / Fold change /veh LOC101060620 /// MAPK8IP1 (11723275_at) / RFU SPTSSB (11747773_x_at) / Fold change /veh SPTSSB (11747773_x_at) / RFU PRSS12 (11739890_at) / Fold change /veh PRSS12 (11739890_at) / RFU BIN1 (11741810_x_at) / Fold change /veh BIN1 (11741810_x_at) / RFU WNT11 (11732464_a_at) / Fold change /veh WNT11 (11732464_a_at) / RFU C10orf10 (11716521_a_at) / Fold change /veh C10orf10 (11716521_a_at) / RFU C5orf56 (11738089_at) / Fold change /veh C5orf56 (11738089_at) / RFU CYB561 (11721691_x_at) / Fold change /veh CYB561 (11721691_x_at) / RFU ANKRD19P (11752326_a_at) / Fold change /veh ANKRD19P (11752326_a_at) / RFU OR2T12 /// OR2T33 /// OR2T8 (11738714_s_at) / Fold change /veh OR2T12 /// OR2T33 /// OR2T8 (11738714_s_at) / RFU VCAN (11748164_a_at) / Fold change /veh VCAN (11748164_a_at) / RFU JSRP1 (11732532_at) / Fold change /veh JSRP1 (11732532_at) / RFU KRTAP10-11 (11738290_x_at) / Fold change /veh KRTAP10-11 (11738290_x_at) / RFU MYO3A (11730013_a_at) / Fold change /veh MYO3A (11730013_a_at) / RFU EBF3 (11725865_a_at) / Fold change /veh EBF3 (11725865_a_at) / RFU CAMK2N1 (11719241_x_at) / Fold change /veh CAMK2N1 (11719241_x_at) / RFU C5orf56 (11738088_a_at) / Fold change /veh C5orf56 (11738088_a_at) / RFU OLFML3 (11715873_a_at) / Fold change /veh OLFML3 (11715873_a_at) / RFU LOC100653217 /// NTM (11731650_a_at) / Fold change /veh LOC100653217 /// NTM (11731650_a_at) / RFU MAPK11 (11762145_a_at) / Fold change /veh MAPK11 (11762145_a_at) / RFU FIZ1 (11724087_x_at) / Fold change /veh FIZ1 (11724087_x_at) / RFU OASL (11726364_x_at) / Fold change /veh OASL (11726364_x_at) / RFU SOX15 (11748057_x_at) / Fold change /veh SOX15 (11748057_x_at) / RFU CD79A (11719716_a_at) / Fold change /veh CD79A (11719716_a_at) / RFU HIST1H1D (11736915_at) / Fold change /veh HIST1H1D (11736915_at) / RFU CASKIN2 (11723855_a_at) / Fold change /veh CASKIN2 (11723855_a_at) / RFU LOC730098 (11760151_x_at) / Fold change /veh LOC730098 (11760151_x_at) / RFU OR4N2 (11742367_at) / Fold change /veh OR4N2 (11742367_at) / RFU PRRT2 (11749266_a_at) / Fold change /veh PRRT2 (11749266_a_at) / RFU SNX32 (11753110_a_at) / Fold change /veh SNX32 (11753110_a_at) / RFU CDHR5 (11726645_a_at) / Fold change /veh CDHR5 (11726645_a_at) / RFU RCAN1 (11760418_a_at) / Fold change /veh RCAN1 (11760418_a_at) / RFU FAM167A (11723789_a_at) / Fold change /veh FAM167A (11723789_a_at) / RFU FAM26E (11764081_at) / Fold change /veh FAM26E (11764081_at) / RFU ISYNA1 (11749810_s_at) / Fold change /veh ISYNA1 (11749810_s_at) / RFU ACY1 (11761880_at) / Fold change /veh ACY1 (11761880_at) / RFU 11764098_at / Fold change /veh 11764098_at / RFU SAMD14 (11745864_x_at) / Fold change /veh SAMD14 (11745864_x_at) / RFU NPB (11741838_a_at) / Fold change /veh NPB (11741838_a_at) / RFU TMPRSS6 (11731388_a_at) / Fold change /veh TMPRSS6 (11731388_a_at) / RFU KRTAP10-2 (11738614_at) / Fold change /veh KRTAP10-2 (11738614_at) / RFU ARHGAP8 /// PRR5-ARHGAP8 (11727945_x_at) / Fold change /veh ARHGAP8 /// PRR5-ARHGAP8 (11727945_x_at) / RFU KRTAP5-7 /// NADSYN1 (11734609_at) / Fold change /veh KRTAP5-7 /// NADSYN1 (11734609_at) / RFU RASL12 (11751679_a_at) / Fold change /veh RASL12 (11751679_a_at) / RFU CDKN2B (11736163_a_at) / Fold change /veh CDKN2B (11736163_a_at) / RFU PRF1 (11729649_at) / Fold change /veh PRF1 (11729649_at) / RFU, ZNF638 /// ZNF638-IT1 / Fold change vs veh, ZNF638 /// ZNF638-IT1 / RFU, PANK3 / Fold change vs veh, PANK3 / RFU, SH3YL1 / Fold change vs veh, SH3YL1 / RFU, ZEB2 / Fold change vs veh, ZEB2 / RFU, NRIP1 / Fold change vs veh, NRIP1 / RFU, PTTG1IP / Fold change vs veh, PTTG1IP / RFU, CAPN2 / Fold change vs veh, CAPN2 / RFU, MED14 / Fold change vs veh, MED14 / RFU, SNORA58 / Fold change vs veh, SNORA58 / RFU, C1orf63 / Fold change vs veh, C1orf63 / RFU, LRRFIP1 / Fold change vs veh, LRRFIP1 / RFU, NDUFAF7 / Fold change vs veh, NDUFAF7 / RFU, SLC12A2 / Fold change vs veh, SLC12A2 / RFU, IBTK / Fold change vs veh, IBTK / RFU, ESF1 / Fold change vs veh, ESF1 / Fold change vs veh, TMEM50B / RFU, TAOK1 / Fold change vs veh, TAOK1 / RFU, ACBD3 / Fold change vs veh, ACBD3 / RFU, TMA16 / Fold change vs veh, TMA16 / RFU, RWDD3 / Fold change vs veh, RWDD3 / RFU, BCAT1 / Fold change vs veh, BCAT1 / RFU, EDEM3 / Fold change vs veh, EDEM3 / RFU, TMEM33 / Fold change vs veh, TMEM33 / RFU, WDR75 / Fold change vs veh, WDR75 / RFU, AHCTF1 / Fold change vs veh, AHCTF1 / RFU, TFRC / Fold change vs veh, TFRC / RFU, ZDHHC17 / Fold change vs veh, ZDHHC17 / RFU, NOM1 / Fold change vs veh, NOM1 / RFU, ARL8B / Fold change vs veh, ARL8B / RFU, ZBTB11 / Fold change vs veh, ZBTB11 / RFU, TAMM41 / Fold change vs veh, TAMM41 / RFU, KIAA1704 /// LOC100996395 / Fold change vs veh, KIAA1704 /// LOC100996395 / RFU, ING1 / Fold change vs veh, ING1 / RFU, TRMT61B / Fold change vs veh, TRMT61B / RFU, FUBP3 / Fold change vs veh, FUBP3 / RFU, TP53 / Fold change vs veh, TP53 / RFU, TNKS2 / Fold change vs veh, TNKS2 / RFU, ZFP14 / Fold change vs veh, ZFP14 / RFU, ACTR2 / Fold change vs veh, ACTR2 / RFU, PPP3R1 / Fold change vs veh, PPP3R1 / RFU, PIK3R1 / Fold change vs veh, PIK3R1 / RFU, HNRNPA1 / Fold change vs veh, HNRNPA1 / RFU, RNF170 / Fold change vs veh, RNF170 / RFU, ZNF28 / Fold change vs veh, ZNF28 / RFU, RNGTT / Fold change vs veh, RNGTT / RFU, OGT / Fold change vs veh, OGT / RFU, BRD1 / Fold change vs veh, BRD1 / RFU, MARS / Fold change vs veh, MARS / RFU, ZNF655 / Fold change vs veh, ZNF655 / RFU, FAHD1 / Fold change vs veh, FAHD1 / RFU, BDP1 / Fold change vs veh, BDP1 / RFU, LRRCC1 / Fold change vs veh, LRRCC1 / RFU, ARID1A / Fold change vs veh, ARID1A / RFU, ZNF146 / Fold change vs veh, ZNF146 / RFU, ZNF330 / Fold change vs veh, ZNF330 / RFU, GPN3 / Fold change vs veh, GPN3 / RFU, C9orf123 / Fold change vs veh, C9orf123 / RFU, N4BP2L2 / Fold change vs veh, N4BP2L2 / RFU, ARFIP1 / Fold change vs veh, ARFIP1 / RFU, FAM179B / Fold change vs veh, FAM179B / RFU, BCL10 / Fold change vs veh, BCL10 / RFU, UHRF1BP1L / Fold change vs veh, UHRF1BP1L / RFU, BET1 / Fold change vs veh, BET1 / RFU, CNOT2 / Fold change vs veh, CNOT2 / RFU, ZNF268 / Fold change vs veh, ZNF268 / Fold change vs veh, ZNF507 / RFU, DGCR2 / Fold change vs veh, DGCR2 / RFU, WDSUB1 / Fold change vs veh, WDSUB1 / Fold change vs veh, HSP90B1 /// MIR3652 / RFU, ADSS / Fold change vs veh, ADSS / RFU, GK / Fold change vs veh, GK / RFU, ZNF148 / Fold change vs veh, ZNF148 / RFU, TAF9 / Fold change vs veh, TAF9 / RFU, SLC1A5 / Fold change vs veh, SLC1A5 / RFU, SLMO2 / Fold change vs veh, SLMO2 / RFU, ABCC4 / Fold change vs veh, ABCC4 / RFU, LOC101060439 /// RAP1B / Fold change vs veh, LOC101060439 /// RAP1B / RFU, RFX7 / Fold change vs veh, RFX7 / RFU, GTPBP10 / Fold change vs veh, GTPBP10 / RFU, CNEP1R1 / Fold change vs veh, CNEP1R1 / RFU, BIVM-ERCC5 /// ERCC5 / Fold change vs veh, BIVM-ERCC5 /// ERCC5 / RFU, ILF3 / Fold change vs veh, ILF3 / RFU 11762660_at / Fold change /veh 11762660_at / RFU VCAN (11757783_s_at) / Fold change /veh VCAN (11757783_s_at) / RFU DDX43 (11728927_at) / Fold change /veh DDX43 (11728927_at) / RFU KRT8 (11758188_x_at) / Fold change /veh KRT8 (11758188_x_at) / RFU NKD1 (11759106_at) / Fold change /veh NKD1 (11759106_at) / RFU SRD5A1 (11742802_a_at) / Fold change /veh SRD5A1 (11742802_a_at) / RFU TPSAB1 /// TPSB2 (11721975_s_at) / Fold change /veh TPSAB1 /// TPSB2 (11721975_s_at) / RFU GSTM3 (11746129_a_at) / Fold change /veh GSTM3 (11746129_a_at) / RFU IL23R (11737362_x_at) / Fold change /veh IL23R (11737362_x_at) / RFU TMEM51 (11727254_a_at) / Fold change /veh TMEM51 (11727254_a_at) / RFU PIWIL2 (11732686_x_at) / Fold change /veh PIWIL2 (11732686_x_at) / RFU ORM1 (11744905_x_at) / Fold change /veh ORM1 (11744905_x_at) / RFU CCDC152 (11743942_at) / Fold change /veh CCDC152 (11743942_at) / RFU ECM1 (11717891_a_at) / Fold change /veh ECM1 (11717891_a_at) / RFU IL23R (11748794_a_at) / Fold change /veh IL23R (11748794_a_at) / RFU TNFAIP8L3 (11732012_x_at) / Fold change /veh TNFAIP8L3 (11732012_x_at) / RFU MBOAT4 (11741988_at) / Fold change /veh MBOAT4 (11741988_at) / RFU 11764193_at / Fold change /veh 11764193_at / RFU TMEM53 (11763286_at) / Fold change /veh TMEM53 (11763286_at) / RFU MAGEB2 (11727129_at) / Fold change /veh MAGEB2 (11727129_at) / RFU TMEM200A (11744735_a_at) / Fold change /veh TMEM200A (11744735_a_at) / RFU CCDC152 (11751479_a_at) / Fold change /veh CCDC152 (11751479_a_at) / RFU FAM211A (11726209_a_at) / Fold change /veh FAM211A (11726209_a_at) / RFU RGS16 (11746705_a_at) / Fold change /veh RGS16 (11746705_a_at) / RFU VCAN (11755009_s_at) / Fold change /veh VCAN (11755009_s_at) / RFU RHOB (11743442_s_at) / Fold change /veh RHOB (11743442_s_at) / RFU RGS16 (11720943_a_at) / Fold change /veh RGS16 (11720943_a_at) / RFU RGS16 (11720944_at) / Fold change /veh RGS16 (11720944_at) / RFU, VPS4B / Fold change vs veh, VPS4B / RFU, CREB1 / Fold change vs veh, CREB1 / RFU, DNAJC13 / Fold change vs veh, DNAJC13 / RFU, GNAQ / Fold change vs veh, GNAQ / RFU, CDK5R1 / Fold change vs veh, CDK5R1 / RFU, ZRANB3 / Fold change vs veh, ZRANB3 / RFU, CUL4A / Fold change vs veh, CUL4A / RFU, CCNY / Fold change vs veh, CCNY / RFU, UFL1 / Fold change vs veh, UFL1 / RFU, COG3 / Fold change vs veh, COG3 / RFU, DIAPH2 / Fold change vs veh, DIAPH2 / RFU, SKA2 / Fold change vs veh, SKA2 / RFU, AFF3 / Fold change vs veh, AFF3 / RFU, LMF1 / Fold change vs veh, LMF1 / RFU, IPO11 / Fold change vs veh, IPO11 / RFU, DFFB / Fold change vs veh, DFFB / RFU, FOXP1 / Fold change vs veh, FOXP1 / RFU, CARD8 / Fold change vs veh, CARD8 / RFU, STRN3 / Fold change vs veh, STRN3 / RFU, ADK / Fold change vs veh, ADK / RFU, RASSF2 / Fold change vs veh, RASSF2 / RFU, WIPF1 / Fold change vs veh, WIPF1 / RFU, LARP1B / Fold change vs veh, LARP1B / RFU, RASA1 / Fold change vs veh, RASA1 / RFU, RB1 / Fold change vs veh, RB1 / RFU, PPFIA1 / Fold change vs veh, PPFIA1 / RFU, MAT2A / Fold change vs veh, MAT2A / RFU, CCT5 / Fold change vs veh, CCT5 / RFU, WDR92 / Fold change vs veh, WDR92 / RFU, CUX1 / Fold change vs veh, CUX1 / RFU, TTC7A / Fold change vs veh, TTC7A / RFU, TMEM135 / Fold change vs veh, TMEM135 / RFU, DEPTOR / Fold change vs veh, DEPTOR / RFU, CPM / Fold change vs veh, CPM / RFU, DNAJB6 / Fold change vs veh, DNAJB6 / RFU, CACNA2D3 / Fold change vs veh, CACNA2D3 / RFU, DTX4 / Fold change vs veh, DTX4 / RFU, TFCP2 / Fold change vs veh, TFCP2 / RFU, GMCL1 /// GMCL1P1 / Fold change vs veh, GMCL1 /// GMCL1P1 / RFU, AEBP2 / Fold change vs veh, AEBP2 / RFU, SNHG1 /// SNORD22 /// SNORD25 /// SNORD26 /// SNORD27 /// SNORD28 /// SNORD29 /// SNORD31 / Fold change vs veh, SNHG1 /// SNORD22 /// SNORD25 /// SNORD26 /// SNORD27 /// SNORD28 /// SNORD29 /// SNORD31 / Fold change (Aza/veh), C12orf56 (ProbeSet 11735607_a_at) / Fold change (ACY-1035/veh), C12orf56 (ProbeSet 11735607_a_at) / Fold change (Aza/veh), FGFR1OP (ProbeSet 11751329_s_at) / Fold change (ACY-1035/veh), FGFR1OP (ProbeSet 11751329_s_at) / Fold change (Aza/veh), VPS36 (ProbeSet 11739960_a_at) / Fold change (ACY-1035/veh), VPS36 (ProbeSet 11739960_a_at) / RFU SYPL1 (11715823_x_at) / Fold change /veh SYPL1 (11715823_x_at) / RFU IGFBP7 (11715501_s_at) / Fold change /veh IGFBP7 (11715501_s_at) / RFU REEP3 (11722064_at) / Fold change /veh REEP3 (11722064_at) / RFU IGLL1 (11728026_x_at) / Fold change /veh IGLL1 (11728026_x_at): dose or concentration left out as unconfirmed.

As to `Nc1ccc(-c2cccs2)cc1NC(=O)c1ccc2c(c1)cc(C1CC1)n2CCN1CCOCC1` [ACY-1035], the “RFU, ZNF655” value is 32.95 RFU.

The values are drawn from paper PMC5218480 (PLoS ONE, 2017).
